Results: paper PMC8998611, “Identification of Novel GSK-3β Hits Using Competitive Biophysical Assays” (International Journal of Molecular Sciences, 2022)

How the values were obtained:
MEK1 = target: T1, MEK1 (Homo sapiens, UniProt Q02750); assay: Eurofins Kinase Diversity Panel, MEK1; type: biochemical; details: 20 µM compound; ATP at Km ± 15 µM
T1 construct: purchased Eurofins (Kinase Diversity Panel service)
Experimental: (§1) To further characterize the inhibitory activity of the two selected fragments, the selectivity of G5 and G12 towards a panel of 58 kinases of the humane proteome was evaluated using the “Kinase screening and profiling” service of Eurofins, Luxembourg (Kinase Diversity Panel). […] Results are reported in Supplementary Figures S2 and S3.

CDKs = assay: Eurofins Kinase Diversity Panel, CDKs; type: biochemical, human; details: 20 µM compound; ATP at Km ± 15 µM
Experimental: as §1

AMPK1α = target: T2, AMPK1α (Homo sapiens, UniProt Q13131); assay: Eurofins Kinase Diversity Panel, AMPK1α; type: biochemical; details: 20 µM compound; ATP at Km ± 15 µM
T2 construct: purchased Eurofins (Kinase Diversity Panel service)
Experimental: as §1

GSK-3β [1] = target: T3, GSK-3β (Homo sapiens, UniProt P49841); assay: 19F T2 filter NMR ligand-based binding experiments; design: made in house; host or cells: Sf9 cells; details: in presence of GSK-3β and 1 mM or 3 mM AMP-PNP
Experimental: GSK-3β was pre-incubated at room temperature for 10 min in the presence of 1 mM AMP-PNP before addition to the mixtures. […] On the contrary, NMR signals of the non-binding molecules were not affected by the presence of the target protein. Molecules selected from this first NMR screening were then tested as a single compound under the same screening conditions in the presence of two non-binding compounds as negative controls. The promising compounds, still showing binding to GSK-3β when tested as singles, were retested also in the presence of 3 mM AMP-PNP (among these, G5 and G12, whose NMR spectra are reported in Figure 2a,b, respectively). […] These hits were then further analyzed and characterized through different biophysical approaches.
All NMR screening experiments were recorded at 298 K with a Bruker FT NMR Avance III 600 MHz spectrometer, equipped with a 5 mm CryoProbe™ QCI ^1H/^19F–^13C/^15N–D with an automatic sample changer SampleJet™ with temperature control. All GSK-3β experiments were performed at low enzyme concentration (750 nM/1 μM) in 60 mM Hepes pH 7.5, 25 mM NaCl, 10 mM MgCl2, 2 mM TCEP, 8% D2O (for lock signal), 0.003% Triton X-100 (for the coating of NMR tube wall). […]

LOK1 = target: T4, LOK1 (Homo sapiens, UniProt O94804); assay: Eurofins Kinase Diversity Panel, LOK1; type: biochemical; details: 20 µM compound; ATP at Km ± 15 µM; read-out: inhibitory effect on LOK1
T4 construct: purchased Eurofins (Kinase Diversity Panel service)
Experimental: as §1

GSK-3β [2] = target: T3, GSK-3β; assay: GSK-3β kinetics, Lineweaver-Burk analysis of competition with ATP or substrate ULight-GS; type: biochemical; design: made in house; host or cells: Sf9 cells; details: compound 20 and 50 μM; for mechanism of inhibition with respect to substrate ULight-GS: ATP 1 μM, ULight-GS 12.5-200 nM; for mechanism of inhibition with respect to ATP: ATP 0.25-4 μM, ULight-GS 50 nM
Experimental: First, under a constant concentration of the substrate ULight-GS (50 nM), ATP concentrations were varied from 0.25 to 4 μM, and G5 and G12 were tested at 20 and 50 μM. […] Additionally, G5 and G12 (at 20 and 50 μM) were tested by keeping the ATP concentration constant (1 μM) and varying the substrate ULight-GS concentration from 12.5 to 200 nM.
To study the GSK-3β kinetics, the reaction mixture, varying concentrations of ATP (0.25–0.5–1–2–4 μM) or substrate (12.5–25–50–100–200 nM) versus test samples (20 and 50 μM), were incubated for 5, 15, 30, and 60 min at 23 °C, followed by the addition of the 6 mM EDTA and the anti-phospho-GS antibody according to the manufacturer’s protocol.
For GSK-3β kinetic experiments, initial velocities (V0) were determined and fitted to the Michaelis–Menten equation. To directly visualize G5 and G12 inhibition mode, a Lineweaver–Burk plot was generated according to the values obtained from the Michaelis–Menten analysis. […] Graphs and data analysis were performed using GraphPad Prism 8 software.

SAPK2a = target: T5, SAPK2a (Homo sapiens, UniProt Q16539); assay: Eurofins Kinase Diversity Panel, SAPK2a; type: biochemical; details: 20 µM compound, ATP at Km ± 15 µM
T5 construct: purchased Eurofins (Kinase Diversity Panel service)
Experimental: as §1

CDK9 = target: T6, CDK9 (Homo sapiens, UniProt P50750); assay: Eurofins Kinase Diversity Panel, CDK9; type: biochemical; details: 20 µM compound; ATP at Km ± 15 µM; read-out: inhibitory effect on CDK9
T6 construct: purchased Eurofins (Kinase Diversity Panel service)
Experimental: as §1

ABL = target: T7, ABL (Homo sapiens, UniProt P00519); assay: Eurofins Kinase Diversity Panel, ABL; type: biochemical; details: 20 µM compound; ATP at Km ± 15 µM
T7 construct: purchased Eurofins (Kinase Diversity Panel service)
Experimental: as §1

MLK1 = target: T8, MLK1 (Homo sapiens, UniProt P80192); assay: Eurofins Kinase Diversity Panel, MLK1; type: biochemical; details: 20 µM compound; ATP at Km ± 15 µM
T8 construct: purchased Eurofins (Kinase Diversity Panel service)
Experimental: as §1

TAK1 = target: T9, TAK1 (Homo sapiens, UniProt O43318); assay: Eurofins Kinase Diversity Panel, TAK1; type: biochemical; details: 20 µM compound; ATP at Km ± 15 µM; read-out: inhibitory effect on TAK1
T9 construct: purchased Eurofins (Kinase Diversity Panel service)
T9 sequence (O43318 1-303 limits assumed): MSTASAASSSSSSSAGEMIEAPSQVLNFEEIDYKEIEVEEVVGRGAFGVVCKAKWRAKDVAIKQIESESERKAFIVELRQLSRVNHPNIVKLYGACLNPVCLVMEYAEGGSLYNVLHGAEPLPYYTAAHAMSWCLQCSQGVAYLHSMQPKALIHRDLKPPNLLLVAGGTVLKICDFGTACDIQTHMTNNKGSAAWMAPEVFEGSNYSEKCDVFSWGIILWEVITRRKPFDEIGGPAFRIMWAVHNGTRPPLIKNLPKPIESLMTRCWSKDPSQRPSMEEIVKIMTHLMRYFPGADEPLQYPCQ
Experimental: as §1

T3 sequence (P49841 whole entry): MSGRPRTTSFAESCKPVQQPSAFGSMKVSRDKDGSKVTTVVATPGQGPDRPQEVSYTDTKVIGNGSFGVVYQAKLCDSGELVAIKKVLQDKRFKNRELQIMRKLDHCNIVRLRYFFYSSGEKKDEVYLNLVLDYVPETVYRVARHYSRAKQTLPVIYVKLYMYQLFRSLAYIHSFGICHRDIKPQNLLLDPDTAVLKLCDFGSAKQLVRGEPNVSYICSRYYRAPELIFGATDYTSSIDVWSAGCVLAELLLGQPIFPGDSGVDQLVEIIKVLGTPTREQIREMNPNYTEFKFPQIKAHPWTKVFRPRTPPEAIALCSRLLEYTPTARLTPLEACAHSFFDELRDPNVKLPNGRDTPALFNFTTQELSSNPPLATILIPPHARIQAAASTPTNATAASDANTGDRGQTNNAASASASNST
T5 sequence (Q16539 whole entry): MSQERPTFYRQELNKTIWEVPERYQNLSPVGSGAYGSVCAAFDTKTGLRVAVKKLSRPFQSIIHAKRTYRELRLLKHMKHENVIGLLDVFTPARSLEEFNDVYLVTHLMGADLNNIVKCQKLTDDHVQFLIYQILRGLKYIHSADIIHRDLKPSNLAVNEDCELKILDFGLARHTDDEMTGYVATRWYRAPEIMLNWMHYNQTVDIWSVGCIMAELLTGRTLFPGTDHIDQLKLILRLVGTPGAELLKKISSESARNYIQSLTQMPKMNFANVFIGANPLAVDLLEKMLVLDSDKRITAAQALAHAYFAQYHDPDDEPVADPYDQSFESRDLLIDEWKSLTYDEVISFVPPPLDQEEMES
T2 sequence (Q13131 whole entry): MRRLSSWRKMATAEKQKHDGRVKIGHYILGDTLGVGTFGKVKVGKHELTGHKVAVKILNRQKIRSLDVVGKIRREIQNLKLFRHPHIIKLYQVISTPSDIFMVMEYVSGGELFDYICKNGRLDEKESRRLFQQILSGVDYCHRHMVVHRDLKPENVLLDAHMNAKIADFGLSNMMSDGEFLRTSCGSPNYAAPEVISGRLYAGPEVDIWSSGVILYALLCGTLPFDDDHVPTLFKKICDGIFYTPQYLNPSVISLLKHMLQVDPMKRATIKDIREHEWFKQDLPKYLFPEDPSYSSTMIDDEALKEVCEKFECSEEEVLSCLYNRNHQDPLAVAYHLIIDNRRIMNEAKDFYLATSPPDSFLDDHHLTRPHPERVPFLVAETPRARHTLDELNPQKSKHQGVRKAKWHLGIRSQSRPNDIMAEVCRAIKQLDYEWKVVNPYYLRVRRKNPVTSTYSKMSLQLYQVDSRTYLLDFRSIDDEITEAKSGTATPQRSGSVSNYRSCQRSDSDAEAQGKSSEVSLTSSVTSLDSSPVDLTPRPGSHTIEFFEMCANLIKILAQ
T2 sequence (Q9Y478 whole entry partner): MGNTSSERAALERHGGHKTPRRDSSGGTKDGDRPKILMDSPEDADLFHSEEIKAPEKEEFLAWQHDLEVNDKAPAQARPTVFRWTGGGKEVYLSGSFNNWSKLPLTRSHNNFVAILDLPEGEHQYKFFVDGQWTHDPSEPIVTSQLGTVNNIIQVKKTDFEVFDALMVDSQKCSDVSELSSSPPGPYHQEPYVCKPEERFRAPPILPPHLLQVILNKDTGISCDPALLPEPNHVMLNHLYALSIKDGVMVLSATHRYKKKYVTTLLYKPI
T2 sequence (P54619 whole entry partner): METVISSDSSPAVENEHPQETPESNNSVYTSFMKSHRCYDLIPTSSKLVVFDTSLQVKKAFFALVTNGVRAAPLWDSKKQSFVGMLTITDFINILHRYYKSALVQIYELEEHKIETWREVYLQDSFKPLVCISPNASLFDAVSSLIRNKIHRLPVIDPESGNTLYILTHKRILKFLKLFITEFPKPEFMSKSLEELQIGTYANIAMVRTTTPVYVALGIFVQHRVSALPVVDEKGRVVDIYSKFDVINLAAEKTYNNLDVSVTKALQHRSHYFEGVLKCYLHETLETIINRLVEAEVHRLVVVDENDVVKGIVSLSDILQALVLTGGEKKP
T8 sequence (P80192 whole entry): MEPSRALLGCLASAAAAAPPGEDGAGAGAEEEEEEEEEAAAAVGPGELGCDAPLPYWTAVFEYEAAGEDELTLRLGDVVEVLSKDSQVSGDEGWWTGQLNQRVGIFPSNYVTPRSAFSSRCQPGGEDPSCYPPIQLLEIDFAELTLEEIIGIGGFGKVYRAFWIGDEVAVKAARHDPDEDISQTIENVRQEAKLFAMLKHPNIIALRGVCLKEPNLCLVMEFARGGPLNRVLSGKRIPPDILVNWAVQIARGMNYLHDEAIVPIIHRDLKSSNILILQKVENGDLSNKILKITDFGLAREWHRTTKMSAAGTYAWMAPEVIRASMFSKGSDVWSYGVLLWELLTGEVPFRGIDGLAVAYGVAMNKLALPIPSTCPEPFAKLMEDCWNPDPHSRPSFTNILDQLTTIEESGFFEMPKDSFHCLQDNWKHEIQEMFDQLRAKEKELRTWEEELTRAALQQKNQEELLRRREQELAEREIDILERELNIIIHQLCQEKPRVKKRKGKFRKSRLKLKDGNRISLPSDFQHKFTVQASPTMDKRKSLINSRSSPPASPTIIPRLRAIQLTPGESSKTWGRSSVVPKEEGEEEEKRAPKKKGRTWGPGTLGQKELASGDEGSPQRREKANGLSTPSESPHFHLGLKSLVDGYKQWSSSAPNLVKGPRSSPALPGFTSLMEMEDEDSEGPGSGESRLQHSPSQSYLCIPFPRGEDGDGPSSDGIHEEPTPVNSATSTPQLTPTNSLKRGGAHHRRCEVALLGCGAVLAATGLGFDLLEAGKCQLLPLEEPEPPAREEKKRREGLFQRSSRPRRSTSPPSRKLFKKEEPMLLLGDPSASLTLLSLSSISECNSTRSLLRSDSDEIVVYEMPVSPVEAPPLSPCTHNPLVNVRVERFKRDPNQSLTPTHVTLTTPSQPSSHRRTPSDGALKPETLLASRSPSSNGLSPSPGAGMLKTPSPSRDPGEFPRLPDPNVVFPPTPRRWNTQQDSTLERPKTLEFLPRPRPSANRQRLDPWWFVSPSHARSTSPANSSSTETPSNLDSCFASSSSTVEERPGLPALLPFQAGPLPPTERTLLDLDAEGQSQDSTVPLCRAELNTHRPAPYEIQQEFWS
T4 sequence (O94804 whole entry): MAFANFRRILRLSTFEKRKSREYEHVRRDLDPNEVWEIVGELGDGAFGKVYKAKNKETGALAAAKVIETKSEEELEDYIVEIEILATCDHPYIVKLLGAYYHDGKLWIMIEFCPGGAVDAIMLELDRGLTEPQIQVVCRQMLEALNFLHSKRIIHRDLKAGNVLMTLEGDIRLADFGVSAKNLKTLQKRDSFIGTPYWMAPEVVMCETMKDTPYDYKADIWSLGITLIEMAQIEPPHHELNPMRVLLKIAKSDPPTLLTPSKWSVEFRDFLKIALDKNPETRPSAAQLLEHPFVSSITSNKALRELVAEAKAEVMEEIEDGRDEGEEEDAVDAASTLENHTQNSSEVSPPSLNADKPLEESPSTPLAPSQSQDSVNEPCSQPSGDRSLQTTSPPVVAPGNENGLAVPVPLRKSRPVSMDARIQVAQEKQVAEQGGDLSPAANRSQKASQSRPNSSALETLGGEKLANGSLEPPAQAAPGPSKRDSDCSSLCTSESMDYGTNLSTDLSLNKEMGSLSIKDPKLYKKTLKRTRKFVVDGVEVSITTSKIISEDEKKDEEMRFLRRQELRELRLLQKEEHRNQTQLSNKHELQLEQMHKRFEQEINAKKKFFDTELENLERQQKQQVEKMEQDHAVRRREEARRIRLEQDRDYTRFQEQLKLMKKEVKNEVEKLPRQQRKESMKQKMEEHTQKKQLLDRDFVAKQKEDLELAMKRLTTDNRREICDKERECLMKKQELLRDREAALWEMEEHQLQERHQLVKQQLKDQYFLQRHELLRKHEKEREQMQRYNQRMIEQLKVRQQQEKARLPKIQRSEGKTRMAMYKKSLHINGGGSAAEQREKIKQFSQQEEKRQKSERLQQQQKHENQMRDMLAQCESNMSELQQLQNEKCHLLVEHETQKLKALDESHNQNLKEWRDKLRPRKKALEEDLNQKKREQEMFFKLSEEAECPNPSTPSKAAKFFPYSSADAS
T1 sequence (Q02750 whole entry): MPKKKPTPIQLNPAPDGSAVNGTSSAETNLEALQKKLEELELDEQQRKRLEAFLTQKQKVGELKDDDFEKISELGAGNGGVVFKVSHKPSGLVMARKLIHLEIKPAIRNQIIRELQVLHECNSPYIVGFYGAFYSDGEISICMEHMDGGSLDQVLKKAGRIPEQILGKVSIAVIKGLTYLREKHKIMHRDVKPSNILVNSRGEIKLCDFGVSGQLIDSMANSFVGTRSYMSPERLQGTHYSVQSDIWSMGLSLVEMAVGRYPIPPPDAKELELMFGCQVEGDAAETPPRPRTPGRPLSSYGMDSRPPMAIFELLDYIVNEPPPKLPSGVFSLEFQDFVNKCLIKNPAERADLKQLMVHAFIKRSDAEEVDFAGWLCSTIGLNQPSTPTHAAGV

Question: CS(=O)(=O)N1CC(c2nc(N)ncc2-c2ccc(F)cc2)C1 [G5] was tested. Which “inhibitory effect on MEK1” value (MEK1) did it give?
Answer: The value was “only marginally affected”.

Question: And the “inhibitory activity on CDKs” value (CDKs)?
Answer: Its value is “did not show any evident inhibitory activity”.

Question: What about the “inhibitory effect on AMPK1α” value (AMPK1α) of the same compound?
Answer: Its value is “only marginally affected”.

Question: And the “binding by 19F T2 filter NMR (line broadening of signal)” value (GSK-3β [1])?
Answer: The value was “strong line broadening”.

Question: What about the inhibition at 20 µM (LOK1) of the same compound?
Answer: Its inhibition at 20 µM is 21%.

Question: And the “mechanism of inhibition with respect to substrate ULight-GS” value (GSK-3β [2])?
Answer: Its value is “mixed competition mechanism”.

Question: And the “mechanism of inhibition with respect to ATP” value (GSK-3β [2])?
Answer: Its value is “ATP competitive”.

Question: And the inhibition at 20 µM (SAPK2a; read-out: inhibitory effect on SAPK2a)?
Answer: The inhibition at 20 µM was 19%.

Question: How did the inhibition at 20 µM (CDK9) turn out when O=C(Nc1ccccn1)C1CCN(C(=O)CCc2ccccc2F)C1 (stereo not shown) [G12] was run?
Answer: The inhibition at 20 µM was 50%.

Question: And the “inhibitory effect on ABL” value (ABL)?
Answer: The value was “no inhibitory effect”.

Question: And the “inhibitory effect on MLK1” value (MLK1)?
Answer: Its value is “no inhibition”.

Question: What about the “binding by 19F T2 filter NMR (line broadening of signal)” value (GSK-3β [1]) of the same compound?
Answer: The value was “strong line broadening”.

Question: And the inhibition at 20 µM (TAK1)?
Answer: Its inhibition at 20 µM is 20%.

Question: And the “mechanism of inhibition with respect to substrate ULight-GS” value (GSK-3β [2])?
Answer: Its value is “did not compete with the substrate”.

Question: And the “mechanism of inhibition with respect to ATP” value (GSK-3β [2])?
Answer: Its value is “ATP competitive”.

Question: And the “inhibitory effect on SAPK2a” value (SAPK2a)?
Answer: Its value is “no inhibitory effect”.
